Measured values from patent US6368618B1, “Composition and method for enhanced transdermal absorption of nonsteroidal anti-inflammatory drugs” (The University of Georgia Research Foundation, Inc., priority 1999, dated 2002).

Tests used:
Assay type in all cases: physicochemical
[1] = Melt state of ibuprofen in aqueous isopropyl alcohol (optical microscope); set-up: key: S: solid crystals present (FIG. 1-B); O: no crystals present (FIG. 1-A); settings: 25° C.
Excerpt: The total weight of each mixture was 10 g.
FIG. 1-A represents a two phase melt system with homogeneous oil and aqueous phases, and FIG. 1-B represents a system where complete melt is not achieved. […] (FIG. 1-B). […] (FIG. 1-A).

[2] = Composition of the oil phase of two phase melt systems by GC-MS; settings: oil phase of dispersion with 15% isopropyl alcohol, no thymol
Experimental: The composition of the oil phase formed in the dispersion containing 15% isopropyl alcohol was determined by the gas chromatrography-mass spectrometry (GC-MS) analysis.
After ultracentrifugation at 20,000 rpm for 30 minutes at 25° C. of selected two phase melt systems (Systems I, II, III and IV as shown in Table 3) that had been stored at 25° C. for three months, a portion of the oil phase of these melt systems was removed using a micro-sampling tube and was weighed accurately by a taring method.

[3] = Melt state of physical mixtures of S(+)-ibuprofen and thymol; settings: physical mixtures with thymol
Excerpt: The melt states of the two compounds were then examined weekly for 3 months using an optical microscope.

[4] = Melt state of ibuprofen and thymol in aqueous isopropyl alcohol; settings: racemic ibuprofen in place of S(+)-ibuprofen, with thymol and aqueous IPA, samples as in Table 3, 25° C.
Experimental: (10 g total weight). Replicate samples of these mixtures were prepared at 25° C. and were stored at 25, 15, and 4° C. for three months. During storage, the melt states of the composition were examined weekly using an optical microscope. The results are shown in Table 3, where O and S denote systems described as in FIG. 1-A and 1-B, respectively, at the corresponding temperature. […] The lower the SI:T ratio and the higher the alcohol content, the lower the melting range of the solid components in the mixture, as shown by the attainment of the melt state. […] Thus the use of thymol and aqueous isopropyl alcohol in combination allows the preparation of two phase melt systems with the highest possible SI:T ratio and the lowest isopropyl alcohol content at 25° C.

What does the source list for `CC(C)Cc1ccc([C@H](C)C(=O)O)cc1` [S(+)-ibuprofen, a-methyl-4-(2-methylpropyl) benzene-acetic acid]?
Melt state ([1]; 5% S(+)-ibuprofen, 5% IPA, pH 4.0 acetate buffer, 3 months): S; Melt state ([1]; 5% S(+)-ibuprofen, 10% IPA, pH 4.0 acetate buffer, 3 months): S; Melt state ([1]; 5% S(+)-ibuprofen, 15% IPA, pH 4.0 acetate buffer, 3 months): O; Melt state ([1]; 5% S(+)-ibuprofen, 20% IPA, pH 4.0 acetate buffer, 3 months): O; Melt state ([1]; isopropyl alcohol 10% or less by weight of total composition): did not completely melt; Melt state ([1]; isopropyl alcohol 15% or higher): completely transformed into an oil; concentration of S(+)-ibuprofen in the oil [2]: 68.4 % (w:w); Melt state ([3]; SI:T ratios 5:5 to 6:4 (w:w), ambient temperature (20-25° C.)): spontaneously formed a homogeneous oil; Melt state ([3]; SI:T ratios outside 5:5 to 6:4 (1:9 to 9:1 tested), 25° C.): complete melting of the compounds did not occur

With `CC(C)Cc1ccc(C(C)C(=O)O)cc1` (racemic) [racemic ibuprofen, a-methyl-4-(2-methylpropyl) benzene-acetic acid] as the compound, how does the Melt state ([1]; racemic ibuprofen in place of S(+)-ibuprofen, samples as in Table 2, even at 25% IPA or higher) read?
The Melt state was “complete melt was never achieved”.

And the Melt state [4]?
The Melt state was “complete melt of the solids was never achieved”.
